# Results published in article PMC2810561 (Journal of the American Chemical Society, 2009).
# Test system: T84 human intestinal cells
# Format: cell-based
substance,measurement,value
cholera toxin,secretory response (short-circuit current) to cholera toxin,a pronounced secretory response was observed
